Tested on: Rattus norvegicus
Assay: Antidiabetic activity in STZ-diabetic rat assessed as lowering of plasma glucose level at 1 mM/kg
Assay type: functional

C=C1C(=O)O[C@@H]2[C@H]3C(COC(=O)Cc4ccc(O)cc4)=CC(=O)C3=C(C)C[C@H](O[C@H]3CC(C)=C4C(=O)C=C(COC(=O)Cc5ccc(O)cc5)[C@@H]4[C@H]4OC(=O)[C@@H](C)[C@@H]43)[C@@H]12 [LACTUCAIN C]
Activity: -22.74%

COc1cc([C@H]2O[C@@H](O)[C@@H]3[C@H]2[C@H](O[C@@H]2O[C@H](CO)[C@@H](O)[C@H](O)[C@H]2O)O[C@@H]3c2ccc(O)c(OC)c2)ccc1O [LACTUCASIDE]
Activity: -17.95%

Reference: ChEMBL document CHEMBL1159384, “Antidiabetic dimeric guianolides and a lignan glycoside from Lactuca indica” (2003)
